Data from patent US11109593B2, “Isoxazolin-5-one derivative and herbicide containing same as active ingredient” (HOKKO CHEMICAL INDUSTRY CO., LTD., priority 2017, dated 2021).

Experiments:
Type in all cases: in vivo
[1] = system: Chenopodium album; experiment: Test Example 4: herbicidal effect test by treatment of leave and stem in dry field farming (seven days after seeding); conditions: 120 g/10a active ingredient; emulsion sprayed seven days after seeding; evaluated 14 days after treatment
In short: (§1)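 Duplicate pots were scored 14 days post-spray by dry weight, herbicidal rate = {1 − treated/untreated average dry weight} × 100. The water-diluted emulsion, equivalent to 120 g active ingredient per 10 ares in 100 L, was applied seven days after sowing 20 seeds each into the upper 1 cm of alluvial soil.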

[2] = system: southern crabgrass; experiment: as above; conditions: 120 g/10a active ingredient; emulsion sprayed seven days after seeding; evaluated 14 days after treatment
In short: as §1

[3] = system: Echinochloa crus-galli; experiment: as above; conditions: 120 g/10a active ingredient; emulsion sprayed seven days after seeding; evaluated 14 days after treatment
In short: as §1

[4] = system: Amaranthus viridis; experiment: as above; conditions: 120 g/10a active ingredient; emulsion sprayed seven days after seeding; evaluated 14 days after treatment
In short: as §1

[5] = system: Scirpus juncoides; experiment: Test Example 1: herbicidal effect test by treatment of rice paddy soil (immediately after seeding); conditions: 120 g/10a active ingredient, dry weight vs untreated area, 14 days after treatment
In short: (§2)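 Puddled, fertilized (N:P:K=17:17:17) paddy soil in Wagner pots; seeds sown 0–1 cm deep, flooded to about 3 cm. Emulsifiable formulations diluted in water and dropped into the water immediately after seeding at 120 g active ingredient per 10 ares; greenhouse. Herbicidal rate from dry weight vs untreated at 14 days.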

[6] = system: Echinochloa crus-galli; experiment: as above; conditions: 120 g/10a active ingredient, dry weight vs untreated area, 14 days after treatment
In short: as §2

[7] = system: broad leaf weeds (Lindernia pyxidaria and Monochoria vaginalis); experiment: as above; conditions: 120 g/10a active ingredient, dry weight vs untreated area, 14 days after treatment
In short: as §2

[8] = system: Chenopodium album; experiment: Test Example 3: herbicidal effect test by treatment of dry field farming soil (one day after seeding); conditions: 120 g/10a active ingredient, evaluated 14 days after treatment
In short: (§3)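 Herbicidal rate (%) = {1 − treated/untreated mean plant dry weight} × 100, scored 14 days after spraying, duplicate pots per concentration. Emulsified compound was water-diluted and applied to soil surface one day post-seeding at 120 g a.i. per 10 ares.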

[9] = system: southern crabgrass; experiment: as above; conditions: 120 g/10a active ingredient, evaluated 14 days after treatment
In short: as §3

[10] = system: Echinochloa crus-galli; experiment: as above; conditions: 120 g/10a active ingredient, evaluated 14 days after treatment
In short: as §3

[11] = system: Amaranthus viridis; experiment: as above; conditions: 120 g/10a active ingredient, evaluated 14 days after treatment
In short: as §3

[12] = system: Scirpus juncoides; experiment: Test Example 2: herbicidal effect test by treatment during growing period in paddy rice cultivation (seven days after seeding); conditions: 120 g/10a active ingredient, assessed 14 days after treatment, dry weight vs untreated area
In short: (§4)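 Emulsion formulations, diluted in water, applied dropwise to flooded pots (about 3 cm water) 7 days post-seeding at 120 g a.i./10 ares. Weeds sown 30 seeds each, 0–1 cm deep in puddled paddy soil; greenhouse. Readout: % reduction in plant dry weight vs untreated, day 14, duplicates.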

[13] = system: Echinochloa crus-galli; experiment: as above; conditions: 120 g/10a active ingredient, assessed 14 days after treatment, dry weight vs untreated area
In short: as §4

[14] = system: broad leaf weeds (Lindernia pyxidaria and Monochoria vaginalis); experiment: as above; conditions: 120 g/10a active ingredient, assessed 14 days after treatment, dry weight vs untreated area
In short: as §4

SMILES | herbicidal effect (herbicidal rate), Chenopodium album [1] | herbicidal effect (herbicidal rate), southern crabgrass [2] | herbicidal effect (herbicidal rate), Echinochloa crus-galli [3] | herbicidal effect (herbicidal rate), Amaranthus viridis [4] | Herbicidal rate (%) Scirpus juncoides [5] | Herbicidal rate (%) Echinochloa crus-galli [6] | Herbicidal rate (%) Lindernia pyxidaria [7] | Herbicidal rate (%) Monochoria vaginalis [7] | herbicidal rate, Chenopodium album [8] | herbicidal rate, southern crabgrass [9] | herbicidal rate, Echinochloa crus-galli [10] | herbicidal rate, Amaranthus viridis [11] | Herbicidal rate (%) Scirpus juncoides [12] | Herbicidal rate (%) Echinochloa crus-galli [13] | Herbicidal rate (%) Lindernia pyxidaria [14] | Herbicidal rate (%) Monochoria vaginalis [14]
Cc1c(Cc2ccccc2NS(=O)(=O)C(F)(F)F)c(=O)on1C(C)C1CC1 (stereo not drawn) [Compound 1-144] | 0% | 90% | 90% | 50% | 90% | 100% | 90% | 100% | 0% | 80% | 70% | 0% | 90% | 90% | 50% | 80%
Cc1c(Cc2ccccc2N(S(=O)(=O)C(F)(F)F)S(=O)(=O)C(F)(F)F)c(=O)on1CCC(C)C [Compound 1-974] | 40% | 50% | 90% | 40% | 90% | 100% | 90% | 80% | 100% | 90% | 90% | 100% | 90% | 100% | 90% | 90%
Cc1c(Cc2ccccc2N(C(=O)C2CC2)S(=O)(=O)C(F)(F)F)c(=O)on1C(C)(C)C [Compound 1-403] | 40% | 90% | 90% | 40% | 90% | 90% | 90% | 90% | 90% | 90% | 90% | 90% | 90% | 90% | 90% | 90%
C=CCn1oc(=O)c(Cc2ccccc2N(S(=O)(=O)C(F)(F)F)S(=O)(=O)C(F)(F)F)c1C [Compound 1-985] | 60% | 60% | 90% | 60% | 90% | 90% | 100% | 70% | 80% | 70% | 70% | 80% | 60% | 90% | 60% | 60%
CCC(C)n1oc(=O)c(Cc2ccccc2N(C(=O)Oc2ccccc2)S(=O)(=O)C(F)(F)F)c1C (stereo not drawn) [Compound 1-763] | 40% | 90% | 90% | 40% | 90% | 90% | 90% | 90% | 90% | 90% | 90% | 90% | 90% | 90% | 90% | 90%
Cc1c(Cc2ccccc2N(S(C)(=O)=O)S(=O)(=O)C(F)(F)F)c(=O)on1C(C)c1ccccc1 (stereo not drawn) [Compound 1-907] | 40% | 90% | 90% | 40% | 90% | 90% | 90% | 90% | 90% | 90% | 90% | 90% | 90% | 90% | 90% | 90%
CCC(CC)n1oc(=O)c(Cc2ccccc2NS(=O)(=O)C(F)(F)F)c1C [Compound 1-103] | 40% | 90% | 90% | 90% | 90% | 100% | 80% | 100% | 100% | 100% | 100% | 100% | 80% | 90% | 60% | 80%
Cc1c(Cc2ccccc2NS(=O)(=O)C(F)(F)F)c(=O)on1C(C)(C)C [Compound 1-101] | 40% | 90% | 90% | 40% | 90% | 90% | 90% | 90% | 90% | 90% | 90% | 90% | 90% | 90% | 90% | 90%
CSCCn1oc(=O)c(Cc2ccccc2N(C(=O)CC(C)C)S(=O)(=O)C(F)(F)F)c1C [Compound 1-358] | 40% | 90% | 90% | 40% | 90% | 90% | 90% | 90% | 90% | 90% | 90% | 90% | 90% | 90% | 90% | 90%
